Laboratory results reported in publication PMC6100082, “Pyridine-Ureas as Potential Anticancer Agents: Synthesis and In Vitro Biological Evaluation” (Molecules : A Journal of Synthetic Chemistry and Natural …, 2018).
Read-outs that look alike come from different tables or passages of the source.

Experiments:
Assay type in all cases: cell-based, human
KM12 = test: NCI one-dose SRB assay (Colon Cancer)
Description: (§1) The structures of all the newly prepared pyridine-ureas 8a–n were submitted to the National Cancer Institute (NCI) Developmental Therapeutic Program. Eight compounds 8b, 8d, 8e, 8i, 8j and 8l–n were selected to be examined for their in vitro growth inhibitory activity. The anticancer assays were carried out according to the protocol of the Drug Evaluation Branch, NCI, Bethesda. The selected pyridine-ureas were tested at one dose primary anticancer assay against a panel of approximately 58 cancer lines (concentration 10^−5 M). The tested human cancer cell lines emerged from nine different cancer subtypes: leukemia, colon, melanoma, ovarian, lung, CNS, renal, breast and prostate cancers. The sulforhodamine B (SRB) protein assay was adopted to estimate the cell viability and growth. The results were reported as mean-graph of the percentage growth of the treated cells, and presented as percentage growth inhibition (GI%) caused by the test compounds (Table 2).
(§2) The anticancer assays were performed in accordance with the protocol of the Drug Evaluation Branch, NCI, Bethesda. A 48 h drug exposure protocol was used and sulforhodamine B (SRB) protein assay was applied to estimate the cell viability and growth, as reported earlier.

SW-620 = test: NCI one-dose SRB assay (Colon Cancer)
Description: as §1, §2

HT29 = test: NCI one-dose SRB assay (Colon Cancer)
Description: as §1, §2

HCT-15 = test: NCI one-dose SRB assay (Colon Cancer)
Description: as §1, §2

COLO 205 = test: NCI one-dose SRB assay (Colon Cancer)
Description: as §1, §2

NCI 58 cell line panel = test: NCI one-dose SRB assay, whole panel / subpanel summary; conditions: One Dose Mean Graph, 1.00E-5 Molar
Description: as §1, §2

K-562 = test: NCI one-dose SRB assay (Leukemia)
Description: as §1, §2

HL-60(TB) = test: NCI one-dose SRB assay (Leukemia)
Description: as §1, §2

CCRF-CEM = test: NCI one-dose SRB assay (Leukemia)
Description: as §1, §2

SR = test: NCI one-dose SRB assay (Leukemia)
Description: as §1, §2

RPMI-8226 = test: NCI one-dose SRB assay (Leukemia)
Description: as §1, §2

MOLT-4 = test: NCI one-dose SRB assay (Leukemia)
Description: as §1, §2

SN12C = test: NCI one-dose SRB assay (Renal Cancer)
Description: as §1, §2

RXF 393 = test: NCI one-dose SRB assay (Renal Cancer)
Description: as §1, §2

786-0 = test: NCI one-dose SRB assay (Renal Cancer)
Description: as §1, §2

A498 = test: NCI one-dose SRB assay (Renal Cancer)
Description: as §1, §2

TK-10 = test: NCI one-dose SRB assay (Renal Cancer)
Description: as §1, §2

UO-31 = test: NCI one-dose SRB assay (Renal Cancer)
Description: as §1, §2

DU-145 = test: NCI one-dose SRB assay (Prostate)
Description: as §1, §2

PC-3 = test: NCI one-dose SRB assay (Prostate)
Description: as §1, §2

[1] = system: breast cancer MCF-7 cell line; test: In vitro anti-proliferative activity, MTT assay; conditions: MCF-7, MTT
Description: The in vitro anti-proliferative activity of the newly prepared pyridine-ureas 8a–n was examined against breast cancer MCF-7 cell line. The assay was carried out, as triplicates, utilizing the 3-(4,5-dimethylthiazol-2-yl)-2,5-diphenyltetrazolium bromide (MTT) colorimetric assay as described by T. Mosmann. Doxorubicin and Sorafenib were included in this assay as a reference drug.
MCF-7 (human breast cancer cell line) and WI-38 (human lung fibroblast cell line), were obtained from American Type Culture Collection (Manassas, VA, USA). The cells were propagated in DMEM and supplemented with 10% heat-inactivated FBS (Hyclone), 10 μg/mL of insulin (Manufacturer, Sigma, St. Louis, MO, USA), and 1% penicillin-streptomycin. MTT assay was utilized to examine the in vitro anti-proliferative activity of the newly prepared ureas following the reported procedures. […] The data presented are the mean of at least three separate experiments.

UACC-257 = test: NCI one-dose SRB assay (Melanoma)
Outline: (§3)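 At a fixed 10^−5 M, each compound is incubated with the cell line for 48 h before protein content is stained with sulforhodamine B to gauge viability and growth; results are presented as GI%.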

SK-MEL-28 = test: NCI one-dose SRB assay (Melanoma)
Outline: as §3

Substance: 1-(4-Chloro-4-(trifluoromethyl)cyclohexa-2,5-dien-1-yl)-3-(6-(3,4-dimethoxyphenyl)-2-methylpyridin-3-yl)urea [Compound 8l]
- Percentage growth inhibition (GI%) (KM12; KM12, 10 μM): 30%
- Growth Percent (KM12; KM12, 1.00E-5 Molar): 70.44%
- Percentage growth inhibition (GI%) (SW-620; SW-620, 10 μM): 10%
- Growth Percent (SW-620; SW-620, 1.00E-5 Molar): 90.92%
- Percentage growth inhibition (GI%) (HT29; HT29, 10 μM): 44%
- Growth Percent (HT29; HT29, 1.00E-5 Molar): 56.20%
- Percentage growth inhibition (GI%) (HCT-15; HCT-15, 10 μM): 51%
- Growth Percent (HCT-15; HCT-15, 1.00E-5 Molar): 49.62%
- Percentage growth inhibition (GI%) (COLO 205; COLO 205, 10 μM): - (Only GI% higher than 10% are shown)
- Growth Percent (COLO 205; COLO 205, 1.00E-5 Molar): 93.52%
- Mean Growth Percent (NCI 58 cell line panel): 68.99%
- Percentage growth inhibition (GI%) (K-562; K-562, 10 μM): 51%
- Growth Percent (K-562; K-562, 1.00E-5 Molar): 49.47%
- Percentage growth inhibition (GI%) (HL-60(TB); 10 μM): 48%
- Growth Percent (HL-60(TB); 1.00E-5 Molar): 52.58%
- Percentage growth inhibition (GI%) (CCRF-CEM; 10 μM): 45%
- Growth Percent (CCRF-CEM; 1.00E-5 Molar): 55.04%
- Percentage growth inhibition (GI%) (SR; 10 μM): 40%
- Growth Percent (SR; 1.00E-5 Molar): 60.09%
- Percentage growth inhibition (GI%) (RPMI-8226; RPMI-8226, 10 μM): 57%
- Growth Percent (RPMI-8226; RPMI-8226, 1.00E-5 Molar): 43.88%
- Percentage growth inhibition (GI%) (MOLT-4; MOLT-4, 10 μM): 57%
- Growth Percent (MOLT-4; MOLT-4, 1.00E-5 Molar): 43.68%
- Percentage growth inhibition (GI%) (SN12C; 10 μM): 22%
- Growth Percent (SN12C; 1.00E-5 Molar): 78.52%
- Percentage growth inhibition (GI%) (RXF 393; RXF 393, 10 μM): 28%
- Growth Percent (RXF 393; RXF 393, 1.00E-5 Molar): 72.65%
- Percentage growth inhibition (GI%) (786-0; 786-0, 10 μM): 25%
- Growth Percent (786-0; 786-0, 1.00E-5 Molar): 75.10%
- Percentage growth inhibition (GI%) (A498; A498, 10 μM): 43%
- Growth Percent (A498; A498, 1.00E-5 Molar): 57.69%
- Percentage growth inhibition (GI%) (TK-10; TK-10, 10 μM): 12%
- Growth Percent (TK-10; TK-10, 1.00E-5 Molar): 88.19%
- Percentage growth inhibition (GI%) (UO-31; UO-31, 10 μM): 28%
- Growth Percent (UO-31; UO-31, 1.00E-5 Molar): 72.37%
- Percentage growth inhibition (GI%) (DU-145; DU-145, 10 μM): 20%
- Growth Percent (DU-145; DU-145, 1.00E-5 Molar): 80.60%
- Percentage growth inhibition (GI%) (PC-3; PC-3, 10 μM): 67%
- Growth Percent (PC-3; PC-3, 1.00E-5 Molar): 33.54%
- IC50 ([1]; 48 h of incubation, read-out: IC50 48 h): 7.03 ± 0.61 µM
- IC50 ([1]; 72 h of incubation, read-out: IC50 72 h): 21.4 ± 2.03 µM
- Percentage growth inhibition (GI%) (UACC-257; UACC-257, 10 μM): 44%
- Growth Percent (UACC-257; UACC-257, 1.00E-5 Molar): 56.26%
- Percentage growth inhibition (GI%) (SK-MEL-28; SK-MEL-28, 10 μM): 27%
- Growth Percent (SK-MEL-28; SK-MEL-28, 1.00E-5 Molar): 73.58%
